# In patent US12448389B2, “BRM targeting compounds and associated methods of use” (Prelude Therapeutics Incorporated, priority 2020, dated 2025):
# Key:
# SMARCA4-HiBiT = target: T1, SMARCA4-HiBiT (Homo sapiens, UniProt P51532); assay: SMARCA4 HiBiT degradation assay in HeLa cells; format: cell-based; conditions: 18 hours incubation; for DC50: read-out: HeLa-HiBit-SM4 DC50; for Dmax: HeLa, read-out: HeLa-HiBit-SM4 Dmax (%)
# T1 construct: SMARCA4-HiBiT knock-in Hela monoclonal cell (CS3023226); host or cells: HeLa monoclonal knock-in line (CRISPR HiBiT knock-in at the endogenous locus, heterozygous)
# Outline: (§1)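 HeLa monoclonal lines with heterozygous HiBiT knock-in were seeded at 2500 cells/well in EMEM with 10% FBS and treated with compound for 18 h at 37 °C. Remaining tagged protein was measured by Nano-Glo HiBiT lytic luminescence after 30–60 min at RT, and values came from curve fitting.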
# SMARCA2-HiBiT = target: T2, SMARCA2-HiBiT (Homo sapiens, UniProt P51531); assay: SMARCA2 HiBiT degradation assay in HeLa cells; format: cell-based; conditions: 18 hours incubation; for DC50: read-out: HeLa_HiBit-SM2 DC50; for Dmax: HeLa, read-out: HeLa-HiBit-SM2 Dmax (%)
# T2 construct: SMARCA2-HiBiT knock-in Hela monoclonal cell (CS302366); host or cells: HeLa monoclonal knock-in line (CRISPR HiBiT knock-in at the endogenous locus, heterozygous)
# Outline: as §1
# T1 sequence (P51532 whole entry): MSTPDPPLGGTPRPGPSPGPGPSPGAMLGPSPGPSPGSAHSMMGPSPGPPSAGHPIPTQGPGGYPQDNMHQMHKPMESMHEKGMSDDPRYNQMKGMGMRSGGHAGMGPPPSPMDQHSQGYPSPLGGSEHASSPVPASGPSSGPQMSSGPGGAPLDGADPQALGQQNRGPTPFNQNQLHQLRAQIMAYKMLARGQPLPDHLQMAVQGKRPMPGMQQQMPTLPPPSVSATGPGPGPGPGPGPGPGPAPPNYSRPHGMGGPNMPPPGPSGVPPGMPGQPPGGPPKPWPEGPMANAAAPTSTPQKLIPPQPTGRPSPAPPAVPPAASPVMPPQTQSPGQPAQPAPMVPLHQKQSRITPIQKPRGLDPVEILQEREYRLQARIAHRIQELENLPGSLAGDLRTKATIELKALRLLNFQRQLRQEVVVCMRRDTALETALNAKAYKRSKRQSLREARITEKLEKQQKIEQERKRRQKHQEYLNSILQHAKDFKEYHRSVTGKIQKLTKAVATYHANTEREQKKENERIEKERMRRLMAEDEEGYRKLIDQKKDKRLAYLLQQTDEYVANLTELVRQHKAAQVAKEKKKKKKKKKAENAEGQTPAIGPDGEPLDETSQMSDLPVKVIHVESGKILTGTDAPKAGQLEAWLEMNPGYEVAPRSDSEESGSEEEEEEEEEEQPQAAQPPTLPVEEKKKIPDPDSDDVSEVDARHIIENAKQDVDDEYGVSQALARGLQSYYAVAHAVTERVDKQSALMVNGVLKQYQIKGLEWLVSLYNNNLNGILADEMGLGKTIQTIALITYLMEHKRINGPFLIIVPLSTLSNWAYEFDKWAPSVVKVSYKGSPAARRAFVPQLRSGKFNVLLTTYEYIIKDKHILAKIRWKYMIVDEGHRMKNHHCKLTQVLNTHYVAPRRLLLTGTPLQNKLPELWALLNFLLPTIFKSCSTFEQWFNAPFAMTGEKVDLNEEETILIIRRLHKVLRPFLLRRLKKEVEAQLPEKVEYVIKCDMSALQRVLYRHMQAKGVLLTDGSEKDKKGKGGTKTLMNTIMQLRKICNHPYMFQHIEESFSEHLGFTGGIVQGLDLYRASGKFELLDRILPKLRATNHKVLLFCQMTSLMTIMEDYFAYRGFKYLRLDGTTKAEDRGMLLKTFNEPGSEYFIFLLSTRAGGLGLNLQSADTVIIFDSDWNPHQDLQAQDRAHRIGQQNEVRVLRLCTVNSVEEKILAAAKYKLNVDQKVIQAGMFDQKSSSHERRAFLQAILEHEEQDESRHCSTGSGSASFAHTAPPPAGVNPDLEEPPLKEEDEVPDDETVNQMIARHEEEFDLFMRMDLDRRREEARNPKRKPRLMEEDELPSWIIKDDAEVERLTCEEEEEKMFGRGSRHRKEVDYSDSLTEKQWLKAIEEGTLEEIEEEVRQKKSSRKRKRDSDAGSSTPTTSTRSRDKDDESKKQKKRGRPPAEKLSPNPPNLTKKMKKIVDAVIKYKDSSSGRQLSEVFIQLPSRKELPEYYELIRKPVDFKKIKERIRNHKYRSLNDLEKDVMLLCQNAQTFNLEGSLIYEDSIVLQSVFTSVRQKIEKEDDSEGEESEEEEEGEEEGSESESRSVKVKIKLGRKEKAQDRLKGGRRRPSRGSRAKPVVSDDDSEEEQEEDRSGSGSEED
# T2 sequence (P51531 whole entry): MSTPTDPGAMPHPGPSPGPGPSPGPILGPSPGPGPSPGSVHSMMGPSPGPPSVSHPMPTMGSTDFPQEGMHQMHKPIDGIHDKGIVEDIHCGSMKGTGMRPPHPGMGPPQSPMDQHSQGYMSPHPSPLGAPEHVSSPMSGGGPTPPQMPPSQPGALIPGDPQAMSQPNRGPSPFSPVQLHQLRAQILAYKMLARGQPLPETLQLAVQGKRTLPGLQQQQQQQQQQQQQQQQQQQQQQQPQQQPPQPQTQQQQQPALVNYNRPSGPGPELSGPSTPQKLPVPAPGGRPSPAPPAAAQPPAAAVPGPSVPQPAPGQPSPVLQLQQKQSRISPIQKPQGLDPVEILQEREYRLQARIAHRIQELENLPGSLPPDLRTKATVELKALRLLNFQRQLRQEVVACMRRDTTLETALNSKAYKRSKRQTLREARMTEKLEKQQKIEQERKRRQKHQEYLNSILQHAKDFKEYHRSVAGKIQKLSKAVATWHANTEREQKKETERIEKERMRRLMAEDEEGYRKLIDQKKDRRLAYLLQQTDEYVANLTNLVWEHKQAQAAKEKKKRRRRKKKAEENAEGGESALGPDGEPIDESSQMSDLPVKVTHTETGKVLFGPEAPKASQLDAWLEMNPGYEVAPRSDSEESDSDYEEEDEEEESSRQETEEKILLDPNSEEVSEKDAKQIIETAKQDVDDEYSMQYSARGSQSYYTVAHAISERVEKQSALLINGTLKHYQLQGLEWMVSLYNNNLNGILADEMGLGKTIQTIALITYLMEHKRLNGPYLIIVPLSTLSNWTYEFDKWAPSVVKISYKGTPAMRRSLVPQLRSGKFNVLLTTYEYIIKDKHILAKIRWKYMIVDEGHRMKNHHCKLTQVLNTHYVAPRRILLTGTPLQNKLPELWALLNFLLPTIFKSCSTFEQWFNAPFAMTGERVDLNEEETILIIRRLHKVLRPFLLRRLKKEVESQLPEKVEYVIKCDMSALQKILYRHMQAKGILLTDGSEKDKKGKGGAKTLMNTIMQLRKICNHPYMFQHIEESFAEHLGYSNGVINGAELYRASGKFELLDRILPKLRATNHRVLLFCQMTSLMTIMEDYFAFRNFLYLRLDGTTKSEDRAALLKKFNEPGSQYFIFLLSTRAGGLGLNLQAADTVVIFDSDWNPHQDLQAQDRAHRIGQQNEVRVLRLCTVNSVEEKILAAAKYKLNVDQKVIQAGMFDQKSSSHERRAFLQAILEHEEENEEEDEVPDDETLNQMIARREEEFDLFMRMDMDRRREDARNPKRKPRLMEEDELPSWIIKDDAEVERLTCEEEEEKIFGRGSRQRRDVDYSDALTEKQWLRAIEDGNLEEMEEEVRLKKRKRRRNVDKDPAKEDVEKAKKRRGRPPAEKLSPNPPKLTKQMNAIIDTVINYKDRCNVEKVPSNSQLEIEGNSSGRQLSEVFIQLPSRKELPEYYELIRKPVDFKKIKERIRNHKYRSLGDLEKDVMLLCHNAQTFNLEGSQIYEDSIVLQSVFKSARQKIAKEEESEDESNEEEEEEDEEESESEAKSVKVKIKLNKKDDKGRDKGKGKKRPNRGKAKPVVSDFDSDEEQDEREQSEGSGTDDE
compound,measurement,setting,value
"O=C1CCC(N2Cc3ccc(C4CCN(CCCN5CCC(CN6CCN7c8cc(-c9ccccc9O)nnc8NC[C@H]7C6)CC5)CC4)cc3C2=O)C(=O)N1 (stereo partly drawn) [Example 122, 3-(6-(1-(3-(4-(((S)-2-(2-hydroxyphenyl)-5,6,6a,7,9,10-hexahydro-8H-pyrazino[1′,2′:4,5]pyrazino[2,3-c]pyridazin-8-yl)methyl)piperidin-1-yl)propyl)piperidin-4-yl)-1-oxoisoindolin-2-yl)piperidine-2,6-dione]",DC50,SMARCA4-HiBiT,0.01 to 0.1 µM
same,Dmax,SMARCA4-HiBiT,75 to 85%
same,DC50,SMARCA2-HiBiT,0.01 to 0.1 µM
same,Dmax,SMARCA2-HiBiT,> 85%
C[C@@H]1C[C@H](CN2C[C@@H]3[C@H](C2)[C@H]3CN2CCN3c4cc(-c5ccccc5O)nnc4NC[C@H]3C2)CCN1c1cc2c(cc1F)C(=O)N(C1CCC(=O)NC1=O)C2=O (stereo partly drawn) [Example 176],DC50,SMARCA4-HiBiT,0.01 to 0.1 µM
same,Dmax,SMARCA4-HiBiT,50 to 75%
same,DC50,SMARCA2-HiBiT,< 0.01 µM
same,Dmax,SMARCA2-HiBiT,> 85%
"CC(C)(C)C(=O)OCN1C(=O)CCC(N2C(=O)c3ccc(N4CCC(CN5CCC(CN6CCN7c8cc(-c9ccccc9O)nnc8NC[C@H]7C6)CC5)CC4)cc3C2=O)C1=O (stereo partly drawn) [Example 34, (3-(5-(4-((4-(((S)-2-(2-hydroxyphenyl)-5,6,6a,7,9,10-hexahydro-8H-pyrazino [1′,2′:4,5]pyrazino[2,3-c]pyridazin-8-yl)methyl)piperidin-1-yl)methyl)piperidin-1-yl)-1,3-dioxoisoindolin-2-yl)-2,6-dioxopiperidin-1-yl)methyl pivalate]",DC50,SMARCA4-HiBiT,< 0.01 µM
same,Dmax,SMARCA4-HiBiT,> 85%
same,DC50,SMARCA2-HiBiT,< 0.01 µM
same,Dmax,SMARCA2-HiBiT,> 85%
"N#CC1(CN2CCN3c4cc(-c5ccccc5O)nnc4NC[C@H]3C2)CCN(CC2CCN(c3ccc4c(c3)C(=O)N(C3CCC(=O)NC3=O)C4=O)CC2)CC1 (stereo partly drawn) [Example 178, 1-[[1-[2-(2,6-dioxopiperidin-3-yl)-1,3-dioxoisoindol-5-yl]piperidin-4-yl]methyl]-4-[[(10S)-4-(2-hydroxyphenyl)-1,5,6,8,12-pentazatricyclo[8.4.0.02,7]tetradeca-2,4,6-trien-12-yl]methyl]piperidine-4-carbonitrile]",DC50,SMARCA4-HiBiT,< 0.01 µM
same,Dmax,SMARCA4-HiBiT,75 to 85%
same,DC50,SMARCA2-HiBiT,< 0.01 µM
same,Dmax,SMARCA2-HiBiT,> 85%
"O=C1CCC(N2Cc3cc(C4CCN(C5CCCN(CCN6CCN7c8cc(-c9ccccc9O)nnc8NC[C@H]7C6)C5)CC4)ccc3C2=O)C(=O)N1 (stereo partly drawn) [Example 211, 3-(5-(1′-(2-((S)-2-(2-hydroxyphenyl)-5,6,6a,7,9,10-hexahydro-8H-pyrazino[1′,2′:4,5]pyrazino[2,3-c]pyridazin-8-yl)ethyl)-[1,3′-bipiperidin]-4-yl)-1-oxoisoindolin-2-yl)piperidine-2,6-dione]",DC50,SMARCA4-HiBiT,< 0.01 µM
same,Dmax,SMARCA4-HiBiT,> 85%
same,DC50,SMARCA2-HiBiT,< 0.01 µM
same,Dmax,SMARCA2-HiBiT,> 85%
"CC(C)(C)C(=O)OCN1C(=O)CCC(N2C(=O)c3cccc(N4CCC(N5CCC(N6CCN7c8cc(-c9ccccc9O)nnc8NC[C@H]7C6)CC5)CC4)c3C2=O)C1=O (stereo partly drawn) [Example 123, (3-(4-(4-((S)-2-(2-hydroxyphenyl)-5,6,6a,7,9,10-hexahydro-811-pyrazino [1′,2′:4,5]pyrazino[2,3-c]pyridazin-8-yl)-[1,4′-bipiperidin]-1′-yl)-1,3-dioxoisoindolin-2-yl)-2,6-dioxopiperidin-1-yl)methyl pivalate]",DC50,SMARCA4-HiBiT,< 0.01 µM
same,Dmax,SMARCA4-HiBiT,75 to 85%
same,DC50,SMARCA2-HiBiT,< 0.01 µM
same,Dmax,SMARCA2-HiBiT,75 to 85%
"O=C1CCC(N2C(=O)c3ccc(N4CCC5(CN6CCC(CN7CCN8c9cc(-c%10ccccc%10O)nnc9NC[C@H]8C7)CC6)CC5C4)cc3C2=O)C(=O)N1 (stereo partly drawn) [Example 189, 2-(2,6-dioxopiperidin-3-yl)-5-[6-[[4-[[(10S)-4-(2-hydroxyphenyl)-1,5,6,8,12-pentazatricyclo[8.4.0.02,7]tetradeca-2(7),3,5-trien-12-yl]methyl]piperidin-1-yl]methyl]-3-azabicyclo[4.1.0]heptan-3-yl]isoindole-1,3-dione]",DC50,SMARCA4-HiBiT,< 0.01 µM
same,Dmax,SMARCA4-HiBiT,75 to 85%
same,DC50,SMARCA2-HiBiT,< 0.01 µM
same,Dmax,SMARCA2-HiBiT,75 to 85%
"O=C1CCC(N2C(=O)c3ccc(N4CC[C@H](CN5C[C@@H]6[C@H](C5)[C@H]6CN5CCN6c7cc(-c8ccccc8O)nnc7NC[C@H]6C5)[C@@H](F)C4)cc3C2=O)C(=O)N1 (stereo partly drawn) [Example 194, 2-(2,6-dioxopiperidin-3-yl)-5-[(3R,4R)-3-fluoro-4-[[(1S,5R)-6-[[(10S)-4-(2-hydroxyphenyl)-1,5,6,8,12-pentazatricyclo[8.4.0.02,7]tetradeca-2(7),3,5-trien-12-yl]methyl]-3-azabicyclo[3.1.0]hexan-3-yl]methyl]piperidin-1-yl]isoindole-1,3-dione]",HeLa-HiBit-SM4 Dmax (%),SMARCA4-HiBiT,B (B=75%<Dmax<=85%)
same,DC50,SMARCA4-HiBiT,< 0.01 µM
same,HeLa-HiBit-SM2 Dmax (%),SMARCA2-HiBiT,A (A=Dmax>85%)
same,DC50,SMARCA2-HiBiT,< 0.01 µM
"O=C1CCC(N2C(=O)c3cccc(N4CCC(CN5CCC(CN6CCN7c8cc(-c9ccccc9O)nnc8NC[C@H]7C6)CC5)CC4)c3C2=O)C(=O)N1 (stereo partly drawn) [Example 127, 2-(2,6-dioxopiperidin-3-yl)-4-(4-((4-(((S)-2-(2-hydroxyphenyl)-5,6,6a,7,9,10-hexahydro-8H-pyrazino[1′,2′:4,5]pyrazino[2,3-c]pyridazin-8-yl)methyl)piperidin-1-yl)methyl)piperidin-1-yl) isoindoline-1,3-dione]",DC50,SMARCA4-HiBiT,< 0.01 µM
same,Dmax,SMARCA4-HiBiT,75 to 85%
same,DC50,SMARCA2-HiBiT,< 0.01 µM
same,Dmax,SMARCA2-HiBiT,> 85%
"O=C1CCC(N2C(=O)c3ccc(N4CCC(N[C@H]5C[C@H](CN6CCN7c8cc(-c9ccccc9O)nnc8NC[C@H]7C6)C5)CC4)cc3C2=O)C(=O)N1 (stereo partly drawn) [Example 77, 2-(2,6-dioxopiperidin-3-yl)-5-(4-(((1S,3r)-3-(((S)-2-(2-hydroxyphenyl)-5,6,6a,7,9,10-hexahydro-8H-pyrazino[1′,2′:4,5]pyrazino[2,3-c]pyridazin-8-yl)methyl)cyclobutyl)amino)piperidin-1-yl)isoindoline-1,3-dione]",DC50,SMARCA4-HiBiT,< 0.01 µM
same,Dmax,SMARCA4-HiBiT,> 85%
same,DC50,SMARCA2-HiBiT,< 0.01 µM
same,Dmax,SMARCA2-HiBiT,> 85%
"O=C1CCC(N2C(=O)c3ccc(NCCN4C[C@@H]5[C@H](C4)[C@H]5CN4CCN5c6cc(-c7ccccc7O)nnc6NC[C@H]5C4)cc3C2=O)C(=O)N1 (stereo partly drawn) [Example 153, 2-(2,6-dioxopiperidin-3-yl)-5-((2-((1R,5S,6r)-6-(((S)-2-(2-hydroxyphenyl)-5,6,6a,7,9,10-hexahydro-8H-pyrazino[1′,2′:4,5]pyrazino[2,3-c]pyridazin-8-yl)methyl)-3-azabicyclo[3.1.0]hexan-3-yl)ethyl)amino)isoindoline-1,3-dione]",DC50,SMARCA4-HiBiT,0.01 to 0.1 µM
same,Dmax,SMARCA4-HiBiT,75 to 85%
same,DC50,SMARCA2-HiBiT,< 0.01 µM
same,Dmax,SMARCA2-HiBiT,50 to 75%
"O=C1CCC(N2C(=O)c3ccc(N4CC[C@H](CN5C[C@@H]6[C@H](C5)[C@H]6CN5CCN6c7cc(-c8cc(F)ccc8O)nnc7NC[C@H]6C5)[C@@H](F)C4)cc3C2=O)C(=O)N1 (stereo partly drawn) [Example 278, 2-(2,6-dioxopiperidin-3-yl)-5-((3R,4R)-3-fluoro-4-(((1R,5S,6R)-6-(((S)-2-(5-fluoro-2-hydroxyphenyl)-5,6,6a,7,9,10-hexahydro-8H-pyrazino[1′,2′:4,5]pyrazino[2,3-c]pyridazin-8-yl)methyl)-3-azabicyclo[3.1.0]hexan-3-yl)methyl)piperidin-1-yl) isoindoline-1,3-dione]",HeLa-HiBit-SM4 Dmax (%),SMARCA4-HiBiT,A (A=Dmax>85%)
same,DC50,SMARCA4-HiBiT,< 0.01 µM
same,HeLa-HiBit-SM2 Dmax (%),SMARCA2-HiBiT,A (A=Dmax>85%)
same,DC50,SMARCA2-HiBiT,< 0.01 µM
"O=C1CCC(N2C(=O)c3ccc(N4CC[C@H](CN5CCN(C(=O)N6CCN7c8cc(-c9ccccc9O)nnc8NC[C@H]7C6)CC5)[C@@H](F)C4)cc3C2=O)C(=O)N1 (stereo partly drawn) [Example 206, 2-(2,6-dioxopiperidin-3-yl)-5-[(3R,4R)-3-fluoro-4-[[4-[(10S)-4-(2-hydroxyphenyl)-1,5,6,8,12-pentazatricyclo [8.4.0.02,7]tetradeca-2(7),3,5-triene-12-carbonyl]piperazin-1-yl]methyl]piperidin-1-yl]isoindole-1,3-dione]",DC50,SMARCA4-HiBiT,0.01 to 0.1 µM
same,Dmax,SMARCA4-HiBiT,50 to 75%
same,DC50,SMARCA2-HiBiT,< 0.01 µM
same,Dmax,SMARCA2-HiBiT,> 85%
"O=C1CCC(N2C(=O)c3ccc(Nc4cccc(N5CCC(N6CCN7c8cc(-c9ccccc9O)nnc8NC[C@H]7C6)CC5)c4)cc3C2=O)C(=O)N1 (stereo partly drawn) [Example 244, 2-(2,6-dioxopiperidin-3-yl)-5-((3-(4-((S)-2-(2-hydroxyphenyl)-5,6,6a,7,9,10-hexahydro-8H-pyrazino[1′,2′:4,5]pyrazino[2,3-c]pyridazin-8-yl)piperidin-1-yl)phenyl)amino)isoindoline-1,3-dione]",DC50,SMARCA4-HiBiT,0.01 to 0.1 µM
same,Dmax,SMARCA4-HiBiT,75 to 85%
same,DC50,SMARCA2-HiBiT,< 0.01 µM
same,Dmax,SMARCA2-HiBiT,75 to 85%
"O=C1CCC(N2Cc3ccc(N4CC(CN5C[C@@H]6[C@H](C5)[C@H]6CN5CCN6c7cc(-c8ccccc8O)nnc7NC[C@H]6C5)C4)cc3C2=O)C(=O)N1 (stereo partly drawn) [Example 108, 3-(6-(3-(((1R,5S,6r)-6-(((S)-2-(2-hydroxyphenyl)-5,6,6a,7,9,10-hexahydro-8H-pyrazino[1′,2′:4,5]pyrazino[2,3-c]pyridazin-8-yl)methyl)-3-azabicyclo[3.1,0]hexan-3-yl)methyl)azetidin-1-yl)-1-oxoisoindolin-2-yl)piperidine-2,6-dione]",DC50,SMARCA4-HiBiT,< 0.01 µM
same,Dmax,SMARCA4-HiBiT,> 85%
same,DC50,SMARCA2-HiBiT,< 0.01 µM
same,Dmax,SMARCA2-HiBiT,> 85%
